US20050250801A1, “Method of treating cancer with azaspirane compositions” (priority 2003, published 2005)
Read-outs that look alike come from different tables or passages of the source.

Legend:
Assay in all cases: NCI in vitro SRB assay, Renal Cancer
Type in all cases: cell-based
786-0 = conditions: for CC50 / GI50: Homo sapiens
Experimental: (§1) An in vitro assay which tested the ability of N,N,-diethyl-8,8-dipropyl-2-azaspiro[4,5]decane-2-propanamine dimaleate (Compound 1) to inhibit the growth of known cancer cell lines was performed by the National Cancer Institute in accordance with standard procedures. See: Lin, Z. X., Hoult, J. R., and Raman, A. Sulphorhodamine B assay for measuring proliferation of a pigmented melanocyte cell line and its application to the evaluation of crude drugs used in the treatment of vitiligo. J Ethnopharmacol. 66: 141-150, 1999. Briefly, selected tumor cell lines were cultured in media containing five different concentrations of Compound 1. After 48 hours of continuous exposure, a sulforhodamine B (SRB) assay was used to estimate cell viability or growth via optical measurements.
(§2) From the measurements, the following values were determined: 1) the concentration of Compound 1 at which a tumor cell growth inhibition of 50% (relative to control) occurs (GI50), 2) the concentration of Compound 1 at which no growth occurs (total growth inhibition, TGI), and 3) the concentration of Compound 1 at which the […] (LC 50). […] FIG. 6 illustrates, graphically, tumor cell growth as a function of Compound 1 concentration of the scanned tumor cell lines.

CAKI-1 = conditions: for CC50 / GI50: Homo sapiens
Experimental: as §1, §2

SN12C = conditions: for GI50 / CC50: Homo sapiens
Experimental: as §1, §2

UO-31 = conditions: for CC50 / GI50: Homo sapiens
Experimental: as §1, §2

RXF 393 = conditions: for CC50 / GI50: Homo sapiens
Experimental: as §1, §2

TK-10 = conditions: for CC50 / GI50: Homo sapiens
Experimental: as §1, §2

ACHN = conditions: for GI50: Homo sapiens
Experimental: as §1, §2

[1] = CAKI-1, Log10 conc -4.0 Moles/L
[2] = CAKI-1, Log10 conc -5.0 Moles/L
[3] = CAKI-1, Log10 conc -6.0 Moles/L
[4] = CAKI-1, Log10 conc -7.0 Moles/L
[5] = CAKI-1, Log10 conc -8.0 Moles/L
[6] = read-out: Log10 GI50 (converted)
[7] = RXF 393, Log10 conc -4.0 Moles/L
[8] = RXF 393, Log10 conc -5.0 Moles/L
[9] = RXF 393, Log10 conc -6.0 Moles/L
[10] = RXF 393, Log10 conc -7.0 Moles/L
[11] = RXF 393, Log10 conc -8.0 Moles/L

For CCCC1(CCC)CCC2(CCN(CCCN(CC)CC)C2)CC1.O=C(O)/C=C\C(=O)O.O=C(O)/C=C\C(=O)O [Compound 1, N,N,-diethyl-8,8-dipropyl-2-azaspiro[4,5]decane-2-propanamine dimaleate], the “Log10 TGI” value (786-0; 786-0) was −5.48, the TGI (786-0; 786-0) was 3.33 µM and the “Mean Optical Densities” value (786-0; 786-0, Log10 conc -4.0 Moles/L) was 0.132. The “Percent Growth” value (786-0; 786-0, Log10 conc -4.0 Moles/L) was −64%, the “Mean Optical Densities” value (786-0; 786-0, Log10 conc -5.0 Moles/L) was 0.121 and the “Percent Growth” value (786-0; 786-0, Log10 conc -5.0 Moles/L) was −67%. The “Mean Optical Densities” value (786-0; 786-0, Log10 conc -6.0 Moles/L) was 0.934, the “Percent Growth” value (786-0; 786-0, Log10 conc -6.0 Moles/L) was 73% and the “Mean Optical Densities” value (786-0; 786-0, Log10 conc -7.0 Moles/L) was 1.091. For the same compound, the “Percent Growth” value (786-0; 786-0, Log10 conc -7.0 Moles/L) was 94%, the “Mean Optical Densities” value (786-0; 786-0, Log10 conc -8.0 Moles/L) was 1.111 and the “Percent Growth” value (786-0; 786-0, Log10 conc -8.0 Moles/L) was 96%. The CC50 (786-0; 786-0, read-out: LC50) was 7.57 µM, the CC50 (786-0; 786-0, read-out: Log10 LC50 (converted)) was 7.59 µM and the GI50 (786-0; 786-0, read-out: GI50) was 1.47 µM. The GI50 (786-0; 786-0, read-out: Log10 GI50 (converted)) was 1.48 µM, the “Log10 TGI” value (CAKI-1; CAKI-1) was −5.49 and the TGI (CAKI-1; CAKI-1) was 3.27 µM. The “Mean Optical Densities” value (CAKI-1; [1]) was 0.136, the “Percent Growth” value (CAKI-1; [1]) was −83% and the “Mean Optical Densities” value (CAKI-1; [2]) was 0.150. For the same compound, the “Percent Growth” value (CAKI-1; [2]) was −81%, the “Mean Optical Densities” value (CAKI-1; [3]) was 1.691 and the “Percent Growth” value (CAKI-1; [3]) was 86%. For the same compound, the “Mean Optical Densities” value (CAKI-1; [4]) was 1.607, the “Percent Growth” value (CAKI-1; [4]) was 78% and the “Mean Optical Densities” value (CAKI-1; [5]) was 1.646. The “Percent Growth” value (CAKI-1; [5]) was 82%, the CC50 (CAKI-1; CAKI-1, read-out: LC50) was 6.51 µM and the CC50 (CAKI-1; CAKI-1, read-out: Log10 LC50 (converted)) was 6.46 µM. For the same compound, the GI50 (CAKI-1; CAKI-1, read-out: GI50) was 1.65 µM, the GI50 (CAKI-1; CAKI-1, read-out: Log10 GI50 (converted)) was 1.66 µM and the “Log10 TGI” value (SN12C) was −5.55. For the same compound, the TGI (SN12C) was 2.82 µM, the GI50 (SN12C; read-out: GI50) was 1.29 µM and the CC50 (SN12C; read-out: LC50) was 6.17 µM. For the same compound, the GI50 (SN12C; [6]) was 1.29 µM, the CC50 (SN12C; read-out: Log10 LC50 (converted)) was 6.17 µM and the “Mean Optical Densities” value (SN12C; Log10 conc -4.0 Moles/L) was 0.036. For the same compound, the “Percent Growth” value (SN12C; Log10 conc -4.0 Moles/L) was −90%, the “Mean Optical Densities” value (SN12C; Log10 conc -5.0 Moles/L) was 0.069 and the “Percent Growth” value (SN12C; Log10 conc -5.0 Moles/L) was −81%. For the same compound, the “Mean Optical Densities” value (SN12C; Log10 conc -6.0 Moles/L) was 0.668, the “Percent Growth” value (SN12C; Log10 conc -6.0 Moles/L) was 66% and the “Mean Optical Densities” value (SN12C; Log10 conc -7.0 Moles/L) was 0.701. The “Percent Growth” value (SN12C; Log10 conc -7.0 Moles/L) was 73%, the “Mean Optical Densities” value (SN12C; Log10 conc -8.0 Moles/L) was 0.717 and the “Percent Growth” value (SN12C; Log10 conc -8.0 Moles/L) was 76%. For the same compound, the CC50 (UO-31; UO-31, read-out: LC50) was 5.03 µM, the CC50 (UO-31; UO-31, read-out: Log10 LC50 (converted)) was 5.01 µM and the GI50 (UO-31; UO-31, read-out: GI50) was 1.2 µM. For the same compound, the GI50 (UO-31; UO-31, read-out: Log10 GI50 (converted)) was 1.2 µM, the “Log10 TGI” value (UO-31; UO-31) was −5.61 and the TGI (UO-31; UO-31) was 2.45 µM. The “Mean Optical Densities” value (UO-31; UO-31, Log10 conc -4.0 Moles/L) was 0.039, the “Percent Growth” value (UO-31; UO-31, Log10 conc -4.0 Moles/L) was −87% and the “Mean Optical Densities” value (UO-31; UO-31, Log10 conc -5.0 Moles/L) was 0.006. For the same compound, the “Percent Growth” value (UO-31; UO-31, Log10 conc -5.0 Moles/L) was −98%, the “Mean Optical Densities” value (UO-31; UO-31, Log10 conc -6.0 Moles/L) was 0.833 and the “Percent Growth” value (UO-31; UO-31, Log10 conc -6.0 Moles/L) was 63%. For the same compound, the “Mean Optical Densities” value (UO-31; UO-31, Log10 conc -7.0 Moles/L) was 1.056, the “Percent Growth” value (UO-31; UO-31, Log10 conc -7.0 Moles/L) was 89% and the “Mean Optical Densities” value (UO-31; UO-31, Log10 conc -8.0 Moles/L) was 1.076. For the same compound, the “Percent Growth” value (UO-31; UO-31, Log10 conc -8.0 Moles/L) was 91%, the CC50 (RXF 393; RXF 393, read-out: LC50) was 7.1 µM and the CC50 (RXF 393; RXF 393, read-out: Log10 LC50 (converted)) was 7.08 µM. For the same compound, the GI50 (RXF 393; RXF 393, read-out: GI50) was 1.64 µM, the GI50 (RXF 393; RXF 393, read-out: Log10 GI50 (converted)) was 1.62 µM and the “Log10 TGI” value (RXF 393; RXF 393) was −5.47. For the same compound, the TGI (RXF 393; RXF 393) was 3.41 µM, the “Mean Optical Densities” value (RXF 393; [7]) was 0.083 and the “Percent Growth” value (RXF 393; [7]) was −74%. The “Mean Optical Densities” value (RXF 393; [8]) was 0.086, the “Percent Growth” value (RXF 393; [8]) was −73% and the “Mean Optical Densities” value (RXF 393; [9]) was 0.943. The “Percent Growth” value (RXF 393; [9]) was 84%, the “Mean Optical Densities” value (RXF 393; [10]) was 1.028 and the “Percent Growth” value (RXF 393; [10]) was 95%. For the same compound, the “Mean Optical Densities” value (RXF 393; [11]) was 1.017, the “Percent Growth” value (RXF 393; [11]) was 94% and the CC50 (TK-10; TK-10, read-out: LC50) was 5.52 µM. The CC50 (TK-10; TK-10, read-out: Log10 LC50 (converted)) was 5.5 µM, the GI50 (TK-10; TK-10, read-out: GI50) was 1.27 µM and the GI50 (TK-10; TK-10, read-out: Log10 GI50 (converted)) was 1.26 µM. The “Log10 TGI” value (TK-10; TK-10) was −5.58, the TGI (TK-10; TK-10) was 2.65 µM and the “Mean Optical Densities” value (TK-10; TK-10, Log10 conc -4.0 Moles/L) was 0.101. The “Percent Growth” value (TK-10; TK-10, Log10 conc -4.0 Moles/L) was −89%, the “Mean Optical Densities” value (TK-10; TK-10, Log10 conc -5.0 Moles/L) was 0.087 and the “Percent Growth” value (TK-10; TK-10, Log10 conc -5.0 Moles/L) was −90%. The “Mean Optical Densities” value (TK-10; TK-10, Log10 conc -6.0 Moles/L) was 1.283, the “Percent Growth” value (TK-10; TK-10, Log10 conc -6.0 Moles/L) was 66% and the “Mean Optical Densities” value (TK-10; TK-10, Log10 conc -7.0 Moles/L) was 1.389. For the same compound, the “Percent Growth” value (TK-10; TK-10, Log10 conc -7.0 Moles/L) was 85%, the “Mean Optical Densities” value (TK-10; TK-10, Log10 conc -8.0 Moles/L) was 1.449 and the “Percent Growth” value (TK-10; TK-10, Log10 conc -8.0 Moles/L) was 96%. The “Log10 TGI” value (ACHN) was −5.55, the TGI (ACHN) was 2.81 µM and the GI50 (ACHN; read-out: GI50) was 1.49 µM. The GI50 (ACHN; [6]) was 1.48 µM, the “Mean Optical Densities” value (ACHN; Log10 conc -4.0 Moles/L) was −0.041 and the “Percent Growth” value (ACHN; Log10 conc -4.0 Moles/L) was −100%. The “Mean Optical Densities” value (ACHN; Log10 conc -5.0 Moles/L) was −0.031, the “Percent Growth” value (ACHN; Log10 conc -5.0 Moles/L) was −100% and the “Mean Optical Densities” value (ACHN; Log10 conc -6.0 Moles/L) was 0.705. For the same compound, the “Percent Growth” value (ACHN; Log10 conc -6.0 Moles/L) was 81%, the “Mean Optical Densities” value (ACHN; Log10 conc -7.0 Moles/L) was 0.711 and the “Percent Growth” value (ACHN; Log10 conc -7.0 Moles/L) was 83%. The “Mean Optical Densities” value (ACHN; Log10 conc -8.0 Moles/L) was 0.721 and the “Percent Growth” value (ACHN; Log10 conc -8.0 Moles/L) was 85%.
